Results reported in EP4488279A1, “SUBSTITUTED HEXAHYDRO-2H-PYRAZINO[1,2-A]PYRAZIN-1(6H)-ONE DERIVATIVES AS ACTIVATORS OF HUMAN CASEINOLYTIC PROTEASE P (HSCLPP)” (Centro Atlantico del Medicamento S.A (Ceamed, S.A), priority 2023, dated 2025).
Like-named read-outs stand apart in the source and are kept apart here.

What was measured:
U2 OS = experiment: MTT cell viability assay, U2 OS; type: cell-based; conditions: Homo sapiens, U2OS, U2 OS cells, 72 H, average of at least two independent experiments
Description: U2 OS [American Type Culture Collection (ATCC) reference number HTB-96]. This is a human bone cancer (a moderately differentiated sarcoma) cell derived from an osteosarcoma patient.
(§1) Cell viability was assayed by measuring the mitochondrial reduction of the tetrazolium salt 3-(4,5-methyltiazol-2yl)-2,5diphenyl-tetrazolium bromide] (MTT) (Applichen; A2231,0010) [Mosmann T. J Immunol Methods. […] Oncogene. […] Cells were seeded at a density according to their exponential growth phase (normally 1000 to 5000/well). The cells were cultured at 37 °C in the dark in air containing 5% CO2. After 24h either vehicle (0.05% DMSO), or drug, was added to culture medium at the indicated concentrations (10 to 0,01microM). After another 72 h, MTT (0.3 mg/ml) was added to cells, followed by incubation for 2-4h at 37 °C in the dark. The medium was then removed, and the precipitated formazan was solubilized by the addition of DMSO (200 µL).

MDA-MB-231 = experiment: MTT cell viability assay, MDA-MB-231; type: cell-based; conditions: Homo sapiens, MDA-MB-231 cells, 72 H, average of at least two independent experiments
Description: This a human breast cancer cell line derived from a metastatic site from a person.
as §1

DU-145 = experiment: MTT cell viability assay, DU-145; type: cell-based; conditions: Homo sapiens, DU-145 cells, 72 H, average of at least two independent experiments
Description: This a human prostate cancer cell line derived from a metastatic site (brain) of a person.
as §1

PANC1 = experiment: MTT cell viability assay, PANC1; type: cell-based; conditions: Homo sapiens, PANC-1, PANC1 cells, 72 H, average of at least two independent experiments
Description: This a human cancer cell line derived from the pancreas of a person.
as §1

Yeast + HsCIpP = experiment: Yeast growth inhibition screen, yeast expressing human ClpP; type: cell-based; conditions: Saccharomyces cerevisiae, 24 h, read-out: Yeast + HsCIpP GI50
Description: This technique allows to directionally assemble several DNA fragments into one single DNA piece. It is based on plasmid libraries that share the same DNA backbone but differ in the type of the insert. The assembly of the final cassette is based on the "Golden Gate Cloning" method. Human CLPP gene sequence (codon-optimized for yeast translation) was amplified with well-designed primers from a plasmid kindly provided by Dr. Michael David Tyers (University of Montreal). Once amplified, a MoClo reaction was performed to obtain the final integrative cassette. This cassette was composed as follows: • Type 1: ConLS 3' connector. • Type 2: TDH3 gene promoter (strong and constitutive expression). • Type 3: Amplified human CLPP gene. • Type 4: ADH1 gene terminator. • Type 5: ConR1 5' connector. • Type 6: LEU2 gene as selectable marker for yeast. • Type 7: 3' HO gene homology sequence for yeast integration. • Type 8a: KanR-ColE1 sequence for bacterial amplification and antibiotic resistance. • Type 8b: 5' HO gene homology sequence for yeast integration.
Digestion patterns with several restriction enzymes were carried out to confirm the success of the MoClo system. An extra restriction enzyme reaction (Notl) was performed to linearize the DNA fragment and deplete the bacterial part.
(§2) These cells contain mutants in YRS1, YRR1, PDR1 and PDR3 genes, which are involved in polydrug and pleiotropic resistance networks.
Yeast cells were transformed with the linearized cassette and transformant colonies were selected on minimum media without leucine. Independent clones were checked by PCR and positive ones were stored at -80 °C until use.
(§3) The yeast (both HsCpIP+ and HsCIpP-) are incubated in petri dishes with YPD (Yeast extract peptone dextrose) at 25 °C overnight, after which a colony is isolated, suspended in a flask with fresh YPD and incubating again under the same conditions but with agitation. […] 100 µl of this solution was then placed into the appropriated wells of a standard 96-well plate. Stock solutions (DMSO, 10 mM) of the compounds to be tested are diluted in YPD to 2X of their final concentrations to be tested, and 100 µl added to the appropriate wells. 100 µl of YPD was added to wells designated as the negative control wells, while ONC206 (0.5 µM) was used as the positive control. Once all compounds were added to the plate, an initial T = 0 absorbance value was recorded at 600 Nm. The plate was then incubated at 25 °C with gentle shaking for 24 h. The plates can either be read at multiple time points using a TECAN Spark® Multimode Microplate Reader, or at the end of the experiment using a standard spectrophotometer.
(§4) Table 2: Growth inhibition (GI50) values for compounds of the present invention in yeast containing HsCIpP, and yeast without HsCIpP.

4T1 = experiment: MTT cell viability assay, 4T1; type: cell-based; conditions: Mus musculus, read-out: IC50 4T1 48 H
Description: This a mouse epithelial breast cancer cell line classified as being triple negative and mimics human breast cancer; stage IV.
as §1, with “After another 72 h, MTT (0.3 mg/ml) was added to cells, followed by incubation for 2-4h at 37 °C in the dark.” left out

Yeast - HsCIpP = experiment: Yeast growth inhibition screen, yeast without human ClpP (selectivity control); type: cell-based; conditions: Saccharomyces cerevisiae, read-out: Yeast - HsCIpP GI50
Description: as §2, §3, §4

MDA-MB-231 cells = experiment: cells; conditions: for GI50 / CC50: Homo sapiens, MDA-MB-231, 72 h; for CC50: read-out: LC50; for Result / TGI50: MDA-MB-231 72 H, SRB; for Result: cytostatic or not; for TGI50: total growth inhibition concentration
Description: In order to measure the cell population at the time zero (Tz) a plate of cells was stained with SRB 24 hours after seeding. The cell monolayers are fixed with cold 5% (w/v) trichloroacetic acid for 60 minutes at 4°C. The excess of trichloroacetic acid is removed by washing five times with distilled water. Sulforhodamine B (SRB) solution [50 µL at 0.4%(w/v) in 1% acetic acid] is added to each well and plates are incubated for 8 minutes at room temperature. The excess dye is removed by washing five times with 1% (v/v) acetic acid. The bound stain is subsequently solubilized with (100 µL) 10 mM trizma base and the absorbance is read on automated plate reader at a wavelength of 550 nm.
Compounds at various concentrations were added to an identical cell-seeded (non-treated) plate and incubated at 37°C (5% CO2) for an additional […]. Cells were fixed and stained following the same protocol. The measurement of the cell population after 72 hours in the presence of the drug is (Ti). Several wells in the same plate were treated with the control vehicle.
Using the absorbance measurements, time zero (Tz), control growth (C), and test growth in the present of the compound (Ti) the percentage growth inhibition is calculated as: • [(Ti-Tz)/(C-Tz)] x 100 for concentrations for which Ti >/= Tz • [(Ti-Tz)/Tz] x 100 for concentrations for which Ti <Tz
These values were determined using GraphPad software v5 (San Diego, CA).

[1] = 4T1 cells, 48 H, MTT, average of at least two independent experiments
[2] = yeast without HsCIpP, 24 h at 25 °C, absorbance at 600 nm

## N#Cc1cccc(CN2CCN3CCN(Cc4ccc(F)cc4)C(=O)C3C2)c1 (centres unmarked) [Compound 1]
U2 OS
  IC50: 220 nM
MDA-MB-231
  IC50: 120 nM
DU-145
  IC50: 200 nM
PANC1
  IC50: 195 nM
Yeast + HsCIpP
  GI50: 150 nM
4T1; [1]
  IC50: 103 nM
Yeast - HsCIpP; [2]
  GI50: > 10000 nM

## N#Cc1cccc(CN2CCN3CCN(Cc4cccc(Cl)c4)C(=O)C3C2)c1 (centres unmarked) [Compound 2]
U2 OS
  IC50: 250 nM
MDA-MB-231
  IC50: 145 nM
DU-145
  IC50: 250 nM
PANC1
  IC50: 140 nM
Yeast + HsCIpP
  GI50: 120 nM
4T1; [1]
  IC50: 165 nM
Yeast - HsCIpP; [2]
  GI50: > 10000 nM

## N#Cc1cccc(CN2CCN3CCN(Cc4ccc(Cl)cc4)C(=O)C3C2)c1 (centres unmarked) [Compound 3]
U2 OS
  IC50: < 100 nM
MDA-MB-231
  IC50: < 100 nM
DU-145
  IC50: < 100 nM
PANC1
  IC50: < 100 nM
Yeast + HsCIpP
  GI50: 65 nM
4T1; [1]
  IC50: < 100 nM
MDA-MB-231 cells
  GI50: < 100 nM
  CC50: > 10000 nM
  Result: Cytostatic
  TGI50: >10 µM
Yeast - HsCIpP; [2]
  GI50: > 10000 nM

## O=C1C2CN(Cc3cccc(F)c3)CCN2CCN1Cc1ccc(F)cc1 (centres unmarked) [Compound 5]
U2 OS
  IC50: 400 nM
MDA-MB-231
  IC50: 240 nM
DU-145
  IC50: 300 nM
PANC1
  IC50: 250 nM
Yeast + HsCIpP
  GI50: 140 nM
4T1; [1]
  IC50: 190 nM
Yeast - HsCIpP; [2]
  GI50: > 10000 nM

## O=C1C2CN(Cc3cccc(F)c3)CCN2CCN1Cc1ccc(Cl)cc1 (centres unmarked) [Compound 6]
U2 OS
  IC50: 300 nM
MDA-MB-231
  IC50: 190 nM
DU-145
  IC50: 250 nM
PANC1
  IC50: 190 nM
Yeast + HsCIpP
  GI50: 60 nM
4T1; [1]
  IC50: 150 nM
Yeast - HsCIpP; [2]
  GI50: > 10000 nM

## O=C1C2CN(CCCCC(F)(F)F)CCN2CCN1Cc1ccc(F)cc1 (centres unmarked) [Compound 7]
U2 OS
  IC50: 500 nM
MDA-MB-231
  IC50: 430 nM
DU-145
  IC50: 500 nM
PANC1
  IC50: 330 nM
Yeast + HsCIpP
  GI50: 2050 nM
4T1; [1]
  IC50: 340 nM
Yeast - HsCIpP; [2]
  GI50: > 10000 nM

## O=C1C2CN(CCCCC(F)(F)F)CCN2CCN1Cc1ccc(C(F)(F)F)cc1 (centres unmarked) [Compound 8]
U2 OS
  IC50: 2000 nM
MDA-MB-231
  IC50: 400 nM
PANC1
  IC50: 350 nM
Yeast + HsCIpP
  GI50: 1650 nM
4T1; [1]
  IC50: 310 nM
Yeast - HsCIpP; [2]
  GI50: > 10000 nM

## O=C1C2CN(Cc3ccccc3)CCN2CCN1Cc1cccc(Cl)c1 (centres unmarked) [Compound 9]
U2 OS
  IC50: 1140 nM
MDA-MB-231
  IC50: 935 nM
DU-145
  IC50: 1080 nM
PANC1
  IC50: 830 nM
Yeast + HsCIpP
  GI50: 690 nM
4T1; [1]
  IC50: 930 nM
Yeast - HsCIpP; [2]
  GI50: > 10000 nM

## O=C1C2CN(Cc3ccccc3)CCN2CCN1Cc1ccc(C(F)(F)F)cc1 (centres unmarked) [Compound 10]
U2 OS
  IC50: 1000 nM
MDA-MB-231
  IC50: 635 nM
DU-145
  IC50: 640 nM
PANC1
  IC50: 640 nM
Yeast + HsCIpP
  GI50: 180 nM
4T1; [1]
  IC50: 650 nM
Yeast - HsCIpP; [2]
  GI50: > 10000 nM

## O=C1C2CN(Cc3ccccc3)CCN2CCN1Cc1ccc(F)cc1 (centres unmarked) [Compound 11]
U2 OS
  IC50: 800 nM
MDA-MB-231
  IC50: 490 nM
DU-145
  IC50: 410 nM
PANC1
  IC50: 600 nM
Yeast + HsCIpP
  GI50: 620 nM
4T1; [1]
  IC50: 515 nM
Yeast - HsCIpP; [2]
  GI50: > 10000 nM

## N#Cc1cccc(CN2CCN3CCN(Cc4ccc(C(F)(F)F)cc4)C(=O)C3C2)c1 (centres unmarked) [Compound 12]
U2 OS
  IC50: 200 nM
MDA-MB-231
  IC50: < 100 nM
DU-145
  IC50: 100 nM
PANC1
  IC50: < 100 nM
Yeast + HsCIpP
  GI50: 75 nM
4T1; [1]
  IC50: < 100 nM
MDA-MB-231 cells
  GI50: < 100 nM
  CC50: > 10000 nM
  Result: Cytostatic
  TGI50: >10 µM
Yeast - HsCIpP; [2]
  GI50: > 10000 nM

## O=C1C2CN(Cc3ccc(C(F)(F)F)cc3)CCN2CCN1Cc1ccc(C(F)(F)F)cc1 (centres unmarked) [Compound 14, 8-(4-trifluoromethylbenzyl)-2-(4-(trifluoromethyl)benzyl)hexahydro-2H-pyrazino[1,2-a]pyrazin-1(6H)-one]
PANC1
  IC50: 240 nM
Yeast + HsCIpP
  GI50: 2580 nM
4T1; [1]
  IC50: 2220 nM
Yeast - HsCIpP; 24 h
  GI50: > 10000 nM

## Cc1ccccc1CN1C(=O)C2=C(CCN(Cc3ccccc3)C2)N2CCN=C12 [ONC201, reference compound]
U2 OS
  IC50: 4800 nM
MDA-MB-231
  IC50: 2280 nM
DU-145
  IC50: 1710 nM
PANC1
  IC50: 1720 nM
4T1; 4T1, 48 h
  IC50: 2220 nM
MDA-MB-231 cells
  Result: Cytostatic
  TGI50: >10 µM
